Results reported in the NIST ThermoML archive (doi:10.1021/je9004036).
Where “and” joins values, the source holds several entries; their conditions need not be identical. Identical values can stand only once. ± gives the expanded uncertainty stated by the source.

Columns and labels:
[1] = for vapor or sublimation pressure: Liquid, Calculated from knudsen effusion weight loss; for Normal melting temperature: Crystal, DTA
[2] = Molar enthalpy of transition or fusion; details: Crystal 1; DSC

COc1cc(C(=O)O)ccc1N [4-amino-3-methoxybenzoic acid]
[1]
Details	vapor or sublimation pressure
373.14 K	0.000103 ± 2e-05 kPa and 0.000102 ± 2e-05 kPa
375.15 K	0.00013 ± 2.1e-05 kPa and 0.000127 ± 2.1e-05 kPa and 0.000126 ± 2.1e-05 kPa
377.18 K	0.000163 ± 2.1e-05 kPa and 0.000156 ± 2.1e-05 kPa and 0.000153 ± 2.1e-05 kPa
379.17 K	0.000192 ± 2.1e-05 kPa and 0.000186 ± 2.1e-05 kPa and 0.000196 ± 2.1e-05 kPa
381.17 K	0.00025 ± 2.2e-05 kPa and 0.00024 ± 2.2e-05 kPa and 0.000232 ± 2.2e-05 kPa
383.18 K	0.000301 ± 2.3e-05 kPa
385.16 K	0.000384 ± 2.4e-05 kPa and 0.000376 ± 2.4e-05 kPa and 0.000374 ± 2.4e-05 kPa
387.17 K	0.000476 ± 2.6e-05 kPa and 0.000455 ± 2.6e-05 kPa and 0.000444 ± 2.5e-05 kPa
389.16 K	0.000587 ± 2.9e-05 kPa and 0.000573 ± 2.9e-05 kPa and 0.00057 ± 2.8e-05 kPa
391.17 K	0.000724 ± 3.3e-05 kPa and 0.000696 ± 3.2e-05 kPa and 0.000678 ± 3.1e-05 kPa
393.17 K	0.000864 ± 3.7e-05 kPa and 0.000841 ± 3.6e-05 kPa and 0.000826 ± 3.5e-05 kPa
395.17 K	0.001037 ± 8.1e-05 kPa and 0.001005 ± 7.8e-05 kPa and 0.000971 ± 4e-05 kPa

Details	Molar enthalpy of transition or fusion [kcal/mol]	Normal melting temperature [°C]
[1]	–	189.20 ± 1.6
[2]	6.04 ± 0.146	–

COc1ccc(C(=O)O)cc1N [3-amino-4-methoxybenzoic acid]
[1]
Details	vapor or sublimation pressure
379.67 K	0.00014 ± 2.1e-05 kPa and 0.000138 ± 2.1e-05 kPa and 0.000135 ± 2.1e-05 kPa
381.72 K	0.000174 ± 2.1e-05 kPa and 0.000169 ± 2.1e-05 kPa and 0.000164 ± 2.1e-05 kPa
383.68 K	0.000215 ± 2.1e-05 kPa and 0.000205 ± 2.1e-05 kPa and 0.000199 ± 2.1e-05 kPa
385.16 K	0.000247 ± 2.2e-05 kPa and 0.000252 ± 2.2e-05 kPa
387.19 K	0.000306 ± 2.3e-05 kPa and 0.000298 ± 2.3e-05 kPa and 0.00029 ± 2.2e-05 kPa
389.18 K	0.000382 ± 2.4e-05 kPa and 0.000363 ± 2.4e-05 kPa and 0.000353 ± 2.4e-05 kPa
391.17 K	0.000455 ± 2.6e-05 kPa
393.21 K	0.000568 ± 2.8e-05 kPa and 0.000557 ± 2.8e-05 kPa and 0.000536 ± 2.8e-05 kPa
395.18 K	0.000698 ± 3.2e-05 kPa and 0.000676 ± 3.1e-05 kPa
397.2 K	0.000832 ± 3.6e-05 kPa and 0.000811 ± 3.5e-05 kPa and 0.000786 ± 3.4e-05 kPa
399.18 K	0.001028 ± 8e-05 kPa and 0.000967 ± 4e-05 kPa and 0.000941 ± 3.9e-05 kPa

Details	Molar enthalpy of transition or fusion [kcal/mol]	Normal melting temperature [°C]
[1]	–	204.72 ± 0.6
[2]	6.06 ± 0.136	–

COc1ccc(N)c(C(=O)O)c1 [2-amino-5-methoxybenzoic acid]
[1]
Details	vapor or sublimation pressure
353.13 K	0.0001 ± 2e-05 kPa and 0.000101 ± 2e-05 kPa
355.15 K	0.000131 ± 2.1e-05 kPa and 0.000128 ± 2.1e-05 kPa and 0.00013 ± 2.1e-05 kPa
357.2 K	0.000159 ± 2.1e-05 kPa and 0.000158 ± 2.1e-05 kPa
359.18 K	0.000202 ± 2.1e-05 kPa and 0.000196 ± 2.1e-05 kPa and 0.000195 ± 2.1e-05 kPa
361.15 K	0.000251 ± 2.2e-05 kPa and 0.000249 ± 2.2e-05 kPa and 0.000252 ± 2.2e-05 kPa
363.2 K	0.000316 ± 2.3e-05 kPa and 0.000304 ± 2.3e-05 kPa and 0.000306 ± 2.3e-05 kPa
365.18 K	0.000384 ± 2.4e-05 kPa and 0.000376 ± 2.4e-05 kPa
367.16 K	0.000479 ± 2.6e-05 kPa and 0.000458 ± 2.6e-05 kPa and 0.000447 ± 2.6e-05 kPa
369.18 K	0.000577 ± 2.9e-05 kPa and 0.000562 ± 2.8e-05 kPa and 0.000553 ± 2.8e-05 kPa
371.14 K	0.000723 ± 3.3e-05 kPa and 0.000704 ± 3.2e-05 kPa and 0.000716 ± 3.2e-05 kPa
373.17 K	0.000898 ± 3.8e-05 kPa and 0.000864 ± 3.7e-05 kPa and 0.000856 ± 3.6e-05 kPa
375.17 K	0.001076 ± 8.5e-05 kPa and 0.001049 ± 8.2e-05 kPa and 0.001039 ± 8.1e-05 kPa

Details	Molar enthalpy of transition or fusion [kcal/mol]	Normal melting temperature [°C]
[1]	–	151.81 ± 0.84
[2]	5.47 ± 0.124	–

COc1cccc(C(=O)O)c1N [2-amino-3-methoxybenzoic acid]
[1]
Details	vapor or sublimation pressure
349.12 K	0.000123 ± 2e-05 kPa and 0.000121 ± 2e-05 kPa
351.18 K	0.000152 ± 2.1e-05 kPa and 0.00015 ± 2.1e-05 kPa and 0.000149 ± 2.1e-05 kPa
353.19 K	0.000194 ± 2.1e-05 kPa and 0.000186 ± 2.1e-05 kPa and 0.000183 ± 2.1e-05 kPa
355.13 K	0.000235 ± 2.2e-05 kPa and 0.000232 ± 2.2e-05 kPa and 0.000234 ± 2.2e-05 kPa
357.18 K	0.000297 ± 2.3e-05 kPa and 0.000285 ± 2.2e-05 kPa and 0.000283 ± 2.2e-05 kPa
359.12 K	0.000362 ± 2.4e-05 kPa and 0.000356 ± 2.4e-05 kPa and 0.000355 ± 2.4e-05 kPa
360.13 K	0.000407 ± 2.5e-05 kPa and 0.000404 ± 2.5e-05 kPa and 0.0004 ± 2.5e-05 kPa
361.16 K	0.000446 ± 2.6e-05 kPa and 0.000437 ± 2.5e-05 kPa and 0.000431 ± 2.5e-05 kPa
363.18 K	0.000552 ± 2.8e-05 kPa and 0.000537 ± 2.8e-05 kPa and 0.000527 ± 2.7e-05 kPa
367.18 K	0.000847 ± 3.6e-05 kPa and 0.000823 ± 3.5e-05 kPa and 0.000808 ± 3.5e-05 kPa
369.18 K	0.001031 ± 8e-05 kPa and 0.001004 ± 7.8e-05 kPa and 0.000983 ± 4e-05 kPa

Details	Molar enthalpy of transition or fusion [kcal/mol]	Normal melting temperature [°C]
[1]	–	169.86 ± 0.63
[2]	5.79 ± 0.131	–

COc1cc(N)cc(C(=O)O)c1 [3-amino-5-methoxybenzoic acid]
[1]
Details	vapor or sublimation pressure
380.16 K	0.000125 ± 2e-05 kPa and 0.000123 ± 2e-05 kPa
381.19 K	0.000138 ± 2.1e-05 kPa and 0.000135 ± 2.1e-05 kPa and 0.000131 ± 2.1e-05 kPa
383.18 K	0.000174 ± 2.1e-05 kPa and 0.000164 ± 2.1e-05 kPa and 0.000156 ± 2.1e-05 kPa
385.16 K	0.000201 ± 2.1e-05 kPa and 0.000217 ± 2.1e-05 kPa and 0.000208 ± 2.1e-05 kPa
387.2 K	0.000269 ± 2.2e-05 kPa and 0.000253 ± 2.2e-05 kPa and 0.000242 ± 2.2e-05 kPa
389.16 K	0.000325 ± 2.3e-05 kPa and 0.000316 ± 2.3e-05 kPa and 0.000301 ± 2.3e-05 kPa
393.19 K	0.000511 ± 2.7e-05 kPa and 0.00049 ± 2.6e-05 kPa and 0.000473 ± 2.6e-05 kPa
395.18 K	0.000631 ± 3e-05 kPa and 0.000591 ± 2.9e-05 kPa and 0.00057 ± 2.8e-05 kPa
397.18 K	0.000773 ± 3.4e-05 kPa
399.19 K	0.000917 ± 3.8e-05 kPa and 0.000887 ± 3.7e-05 kPa and 0.000862 ± 3.7e-05 kPa
400.18 K	0.001003 ± 7.8e-05 kPa and 0.00094 ± 3.9e-05 kPa and 0.000926 ± 3.8e-05 kPa

Details	Molar enthalpy of transition or fusion [kcal/mol]	Normal melting temperature [°C]
[1]	–	183.79 ± 0.87
[2]	5.35 ± 0.122	–
